Entries after “also recorded” stand apart in the source; their conditions may differ.
Assays:
organotypic slices = organotypic slices (Szatmari et al, 2013); cited from earlier work
CA1 neurons = experiment: Dendritic spine density in cultured (organotypic) hippocampal slices treated with Aβ; assay type: cell-based, mice
Procedure: Organotypic hippocampal slice cultures (300 μm thick) were prepared from mice at postnatal day 6 or 7. After 1 week in culture, slices were transfected using biolistic gene transfer. Aβ stock solution (200 μM) was prepared in 1% NH4OH as a vehicle and added directly to the culture medium at a final concentration of 1 μM. FTI-277 was dissolved in DMSO and added directly to the culture medium at a final concentration of 10 μM.

Ras = experiment: Active Ras pull-down assay in hippocampus of AD model (APP) mice; assay type: in vivo; conditions: hippocampus of 6 months old APP mice; daily IP injections for 3 consecutive days
Procedure: (§1) As a model for AD, male hAPPJ20 transgenic mice were used (Mucke et al., 2000). Non-transgenic male littermates were used for controls.
The level of active Ras in hippocampal lysates from CentA1 KO mice and their wild type litter mates was measured with an active Ras pull-down and detection kit and following the instructions from manufacturer (Thermo Scientific). Western blotting was conducted with mouse anti-Ras antibody.

ERK1/2 = experiment: Western blotting for active/phosphorylated ERK1/2 in AD model mice; assay type: in vivo; conditions: daily IP injections for 3 consecutive days
Procedure: as §1
Protein expression and/or phosphorylation was evaluated by standard western blotting protocol using the following antibodies: goat anti-centaurin-α1 (Abcam; 1:500); mouse anti-β-actin (Sigma, 1:2000); mouse 6E10 (Covance, 1:1000); rabbit anti-phosphoERK1/2 (Cell Signaling Technologies, 1:1000); mouse anti-ERK1/2 (Cell Signaling Technologies, 1:1000); mouse anti-Ras (Pierce, 1:1000); rabbit anti-Hsp10 (Cell Signaling Technologies, 1:1000); rabbit anti-Hsp60 (Cell Signaling Technologies, 1:1000); and HRP-labeled anti-mouse, anti-goat, or anti-rabbit IgG antibodies (BioRad; 1:2000).

Row | SMILES | Aβ-induced decreased mEPSC frequency (organotypic slices) | Aβ-induced spine loss (CA1 neurons; organotypic slices, FTI-277 10 μM, Aβ 1 μM) | Ras activity (pull-down assay) (Ras) | dendritic spine density in CA1 neurons exposed to Aβ (CA1 neurons; cultured hippocampal slices, vehicle or Aβ in presence or absence of FTI-276 (FIG. 6D)) | active/phosphorylated ERK1/2 (downstream of Ras) (ERK1/2)
1 | COC(=O)[C@H](CCSC)NC(=O)c1ccc(NC[C@@H](N)CS)cc1-c1ccccc1 [FTI-277] | prevented | prevented |  |  | 
2 | CSCC[C@H](NC(=O)c1ccc(NC[C@@H](N)CS)cc1-c1ccccc1)C(=O)O [FTI-276] |  |  | reduced; also recorded: prevented Ras hyperactivation | restored | reduces the activity of signaling pathways downstream of Ras; also recorded: reduced phosphorylation/activation of ERK1/2

From patent US20160213632A1, “Memory Performance and Prevention and Treatment of Neurodegenerative Diseases” (Max Planck Florida Institute for Neuroscience, priority 2015, published 2016)
